Assay results reported in publication PMC9229798, “Antioxidant Activity and Cytotoxicity of Aromatic Oligosulfides” (Molecules, 2022).
Blank lines part the entries; values can stand above or below the compound they belong to.

Assays:
[1] = TBARS accumulation in liver homogenate (long-term LPO); parameters: species or system Russian sturgeon; conditions: 0.1 mM
Text: The liver is the main organ that all metabolic products pass through. In addition, proteins of the antioxidant defense system are concentrated in the liver, which prevent the toxic effects of various ROS. The oxidation of liver lipids, which compose cell membranes, directly causes cell damage in vivo. Therefore, the liver is similar to biological systems and is considered as a classic model system for studying LPO processes in vitro and in vivo [56]. We studied the antioxidant potential of the compounds on a model system of a long-term process of lipid peroxidation in sturgeon liver. The assay allowed evaluation of the effect of the compounds under prolonged oxidative stress when possible an increase in peroxidation processes and a decrease of antioxidants concentration over time, and inversion of antioxidant/prooxidant properties in vitro [57].
The experiments in vitro were carried out using the liver of a Russian sturgeon raised in a unique aqua complex for the reproduction of valuable fish species of the Federal Research Center Southern Scientific Center of the Russian Academy of Sciences within the framework of State Assignment (Project No. 122020100328-1). All manipulations were conducted according to the international rules GLP (Good Laboratory Practice). The samples of fish liver were fixed in the cold.
The LPO intensity was estimated according to the accumulation of carbonyl products forming a colored complex with thiobarbituric acid (TBARS). A liver of Russian sturgeon (10 g) was homogenized in the cold, and the studied compounds were added at a concentration of 0.1 mM in EtOH to a solution of 1.2% potassium chloride (390 mL) precooled to 0–4 °C. The absence of any influence of EtOH on the LPO rate in the control was preliminarily established under these conditions. […] The supernatant was sampled, and the extinction of sample was measured using a SF-103 spectrophotometer at λ = 532 nm relative to the control sample. […]

HCT-116 = experiment: Annexin V/Dead Cell assay; type: cell-based, human
Text: Apoptosis or programmed cell death is an important and active regulatory pathway of cell growth and proliferation. Cells respond to specific induction signals by initiating intracellular processes that result in characteristic physiological changes. Among these are externalization of phosphatidylserine (PS) to the cell surface, cleavage and degradation of specific cellular proteins, compaction and fragmentation of nuclear chromatin, and loss of membrane integrity. Phosphatidylserine (PS) is normally located in the inner part of the cell membrane. In the initial stage of apoptosis, the PS residues which translocated to the extracellular are detected by Annexin V, which is a calcium-dependent phospholipid-binding protein with a high affinity for PS. Annexin V flow cytometric assay was used to evaluate the compounds’ ability to induce apoptosis and influence on cell death. HCT-116 colon carcinoma and A-549 lung adenocarcinoma cells were treated by disulfides 2 and 3.
HCT-116 (colon carcinoma) and A-549 (lung carcinoma) cells (1 × 10^6) were seeded in a six-well plate and were incubated for 24 h. […] After incubation, the cells were harvested by trypsinization, precipitated by centrifugation (3000 rpm), washed with PBS, recentrifuged, and the buffer was removed. DMEM was added to achieve a cell concentration of 400–1000 cells/µL. The Muse Annexin V & Dead Cell Kit reagent (100 µL) was added to the cells and […] for 20 min at room temperature in the dark. The results were recorded on a Muse Cell Analyzer flow cytometer (Merck, Rahway, NJ, USA).

[2] = parameters: method as in doi:10.1016/j.arabjc.2021.103068; conditions: read-out: DPPH IC50; cited from earlier work

melting point: 58 to 60 °C
Compound: c1ccc(SSSc2ccccc2)cc1 [Compound 1, diphenyl trisulfide]
reduction of the level of TBARS ([1]; after 1 h of incubation): 64%
reduction of the level of TBARS ([1]; after 24 h): 48%
reduction of the level of TBARS ([1]; after 48 h): 37%

Compound: COc1ccc(SSc2ccc(OC)c(OC)c2)cc1OC [Compound 3, bis(3,4-dimethoxyphenyl) disulfide]
Early Apop. (HCT-116; HCT-116, 2 × IC50, 24 h): 9.1%
Late Apop./Dead (HCT-116; HCT-116, 2 × IC50, 24 h): 2.7%
total apoptotic cells (HCT-116; HCT-116, 2 × IC50, 24 h): 11.8%
Late Apop./Dead (HCT-116; HCT-116, 2 × IC50, 48 h): 17.7%
total apoptotic cells (HCT-116; HCT-116, 2 × IC50, 48 h): 44%

Compound: CC(C)(C)c1cc(SSc2cc(C(C)(C)C)c(O)c(C(C)(C)C)c2)cc(C(C)(C)C)c1O [Compound 6, bis(3,5-di-tert-butyl-4-hydroxyphenyl) disulfide]
IC50 [2]: 20.09 ± 0.02 µM
